Experimental data published in ChEMBL document CHEMBL4507272 (2021).

Experiments:
[1] = biological target: STE20/SPS1-related proline-alanine-rich protein kinase (Homo sapiens) (UniProt Q9UEW8); conditions: Compound concentration 1000.0 nM
[2] = tested on: Tyrosine-protein kinase ABL1 (Homo sapiens), P00519 [Q252H]; conditions: Compound concentration 1000.0 nM
[3] = biological target: Activin receptor type-1 (Homo sapiens) (UniProt Q04771); conditions: Compound concentration 1000.0 nM
[4] = tested on: Hepatocyte growth factor receptor (Homo sapiens), P08581 [M1250T]; conditions: Compound concentration 1000.0 nM
[5] = biological target: Serine/threonine-protein kinase STK11 (Homo sapiens) (UniProt Q15831); conditions: Compound concentration 1000.0 nM
[6] = biological target: Cyclin-dependent kinase 16 (Homo sapiens) (UniProt Q00536); conditions: Compound concentration 1000.0 nM
[7] = biological target: Serine/threonine-protein kinase ICK (Homo sapiens) (UniProt Q9UPZ9); conditions: Compound concentration 1000.0 nM
[8] = biological target: MAP kinase-interacting serine/threonine-protein kinase 1 (Homo sapiens) (UniProt Q9BUB5); conditions: Compound concentration 1000.0 nM
[9] = biological target: Activin receptor type-2A (Homo sapiens) (UniProt P27037); conditions: Compound concentration 1000.0 nM
[10] = biological target: Cyclin-dependent kinase 9 (Homo sapiens) (UniProt P50750); conditions: Compound concentration 1000.0 nM
[11] = biological target: Phosphatidylinositol 3-kinase catalytic subunit type 3 (Homo sapiens) (UniProt Q8NEB9); conditions: Compound concentration 1000.0 nM
[12] = biological target: Serine/threonine-protein kinase 32B (Homo sapiens) (UniProt Q9NY57); conditions: Compound concentration 1000.0 nM
[13] = biological target: Mitogen-activated protein kinase 9 (Homo sapiens) (UniProt P45984); conditions: Compound concentration 1000.0 nM
[14] = biological target: Casein kinase I isoform gamma-1 (Homo sapiens) (UniProt Q9HCP0); conditions: Compound concentration 1000.0 nM
[15] = biological target: Proto-oncogene tyrosine-protein kinase receptor Ret (Homo sapiens) (UniProt P07949); conditions: Compound concentration 1000.0 nM
[16] = biological target: Insulin receptor-related protein (Homo sapiens) (UniProt P14616); conditions: Compound concentration 1000.0 nM
[17] = biological target: Serine/threonine-protein kinase Sgk3 (Homo sapiens) (UniProt Q96BR1); conditions: Compound concentration 1000.0 nM
[18] = biological target: 5-hydroxytryptamine receptor 1D (Homo sapiens) (UniProt P28221); conditions: Compound concentration 10.0 uM
[19] = biological target: Mitogen-activated protein kinase kinase kinase 11 (Homo sapiens) (UniProt Q16584); conditions: Compound concentration 1000.0 nM
[20] = biological target: Protein kinase C iota type (Homo sapiens) (UniProt P41743); conditions: Compound concentration 1000.0 nM
[21] = biological target: Mitogen-activated protein kinase kinase kinase 3 (Homo sapiens) (UniProt Q99759); conditions: Compound concentration 1000.0 nM
[22] = biological target: Serine/threonine-protein kinase B-raf (Homo sapiens) (UniProt P15056); conditions: Compound concentration 1000.0 nM
[23] = biological target: Serine/threonine-protein kinase Sgk1 (Homo sapiens) (UniProt O00141); conditions: Compound concentration 1000.0 nM
[24] = biological target: Histamine H1 receptor (Homo sapiens) (UniProt P35367); conditions: Compound concentration 10.0 uM
[25] = biological target: Cyclin-dependent kinase 11A (Homo sapiens) (UniProt Q9UQ88); conditions: Compound concentration 1000.0 nM
[26] = biological target: Phosphatidylinositol 3-kinase C2 domain-containing subunit gamma (Homo sapiens) (UniProt O75747); conditions: Compound concentration 1000.0 nM
[27] = biological target: Atypical kinase COQ8B, mitochondrial (Homo sapiens) (UniProt Q96D53); conditions: Compound concentration 1000.0 nM
[28] = biological target: Mitogen-activated protein kinase kinase kinase 10 (Homo sapiens) (UniProt Q02779); conditions: Compound concentration 1000.0 nM
[29] = biological target: Receptor-interacting serine/threonine-protein kinase 1 (Homo sapiens) (UniProt Q13546); conditions: Compound concentration 1000.0 nM
[30] = tested on: Epidermal growth factor receptor (Homo sapiens), P00533 [UNDEFINED MUTATION]; conditions: Compound concentration 1000.0 nM
[31] = biological target: Tyrosine-protein kinase ITK/TSK (Homo sapiens) (UniProt Q08881); conditions: Compound concentration 1000.0 nM
[32] = biological target: Protein kinase C theta type (Homo sapiens) (UniProt Q04759); conditions: Compound concentration 1000.0 nM
[33] = biological target: Ribosomal protein S6 kinase alpha-5 (Homo sapiens) (UniProt O75582); conditions: Compound concentration 1000.0 nM
[34] = biological target: Dual specificity mitogen-activated protein kinase kinase 6 (Homo sapiens) (UniProt P52564); conditions: Compound concentration 1000.0 nM
[35] = biological target: Glycogen synthase kinase-3 beta (Homo sapiens) (UniProt P49841); conditions: Compound concentration 1000.0 nM
[36] = biological target: Rhodopsin kinase GRK7 (Homo sapiens) (UniProt Q8WTQ7); conditions: Compound concentration 1000.0 nM
[37] = biological target: Tyrosine-protein kinase BTK (Homo sapiens) (UniProt Q06187); conditions: Compound concentration 1000.0 nM
[38] = biological target: Casein kinase I isoform gamma-3 (Homo sapiens) (UniProt Q9Y6M4); conditions: Compound concentration 1000.0 nM
[39] = tested on: Receptor-type tyrosine-protein kinase FLT3 (Homo sapiens), P36888 [D835Y]; conditions: Compound concentration 1000.0 nM
[40] = biological target: Phosphatidylinositol 4,5-bisphosphate 3-kinase catalytic subunit delta isoform (Homo sapiens) (UniProt O00329); conditions: Compound concentration 1000.0 nM
[41] = biological target: Phosphatidylinositol 4-phosphate 5-kinase type-1 alpha (Homo sapiens) (UniProt Q99755); conditions: Compound concentration 1000.0 nM
[42] = biological target: Serine/threonine-protein kinase D1 (Homo sapiens) (UniProt Q15139); conditions: Compound concentration 1000.0 nM
[43] = biological target: Platelet-derived growth factor receptor beta (Homo sapiens) (UniProt P09619); conditions: Compound concentration 1000.0 nM
[44] = biological target: Serine/threonine-protein kinase RIO3 (Homo sapiens) (UniProt O14730); conditions: Compound concentration 1000.0 nM
[45] = biological target: TRAF2 and NCK-interacting protein kinase (Homo sapiens) (UniProt Q9UKE5); conditions: Compound concentration 1000.0 nM

Chain of Phosphatidylinositol 3-kinase catalytic subunit type 3 (Homo sapiens) (Q8NEB9 whole entry): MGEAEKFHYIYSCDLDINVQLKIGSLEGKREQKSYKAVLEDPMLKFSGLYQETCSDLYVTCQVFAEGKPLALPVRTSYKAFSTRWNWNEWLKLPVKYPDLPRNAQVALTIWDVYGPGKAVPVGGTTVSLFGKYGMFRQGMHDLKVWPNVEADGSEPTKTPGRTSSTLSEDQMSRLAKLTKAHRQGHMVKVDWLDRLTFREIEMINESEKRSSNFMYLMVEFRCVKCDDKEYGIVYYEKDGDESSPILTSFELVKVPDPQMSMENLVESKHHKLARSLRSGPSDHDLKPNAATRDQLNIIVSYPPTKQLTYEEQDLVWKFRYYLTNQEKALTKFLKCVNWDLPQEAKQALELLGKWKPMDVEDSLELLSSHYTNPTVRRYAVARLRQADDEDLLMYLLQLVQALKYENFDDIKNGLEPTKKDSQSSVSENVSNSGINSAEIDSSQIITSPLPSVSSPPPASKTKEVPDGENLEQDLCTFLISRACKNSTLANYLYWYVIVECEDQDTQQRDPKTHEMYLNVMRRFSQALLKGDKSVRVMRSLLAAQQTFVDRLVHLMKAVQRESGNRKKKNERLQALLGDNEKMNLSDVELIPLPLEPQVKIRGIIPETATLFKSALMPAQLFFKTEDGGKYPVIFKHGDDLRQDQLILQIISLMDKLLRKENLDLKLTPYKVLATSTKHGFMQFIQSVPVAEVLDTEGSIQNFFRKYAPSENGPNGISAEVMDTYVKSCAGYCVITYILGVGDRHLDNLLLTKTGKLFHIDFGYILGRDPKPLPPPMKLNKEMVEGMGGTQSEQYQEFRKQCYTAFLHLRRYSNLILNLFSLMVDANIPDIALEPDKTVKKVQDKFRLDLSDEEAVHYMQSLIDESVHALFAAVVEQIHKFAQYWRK
Chain of Rhodopsin kinase GRK7 (Homo sapiens) (Q8WTQ7 whole entry): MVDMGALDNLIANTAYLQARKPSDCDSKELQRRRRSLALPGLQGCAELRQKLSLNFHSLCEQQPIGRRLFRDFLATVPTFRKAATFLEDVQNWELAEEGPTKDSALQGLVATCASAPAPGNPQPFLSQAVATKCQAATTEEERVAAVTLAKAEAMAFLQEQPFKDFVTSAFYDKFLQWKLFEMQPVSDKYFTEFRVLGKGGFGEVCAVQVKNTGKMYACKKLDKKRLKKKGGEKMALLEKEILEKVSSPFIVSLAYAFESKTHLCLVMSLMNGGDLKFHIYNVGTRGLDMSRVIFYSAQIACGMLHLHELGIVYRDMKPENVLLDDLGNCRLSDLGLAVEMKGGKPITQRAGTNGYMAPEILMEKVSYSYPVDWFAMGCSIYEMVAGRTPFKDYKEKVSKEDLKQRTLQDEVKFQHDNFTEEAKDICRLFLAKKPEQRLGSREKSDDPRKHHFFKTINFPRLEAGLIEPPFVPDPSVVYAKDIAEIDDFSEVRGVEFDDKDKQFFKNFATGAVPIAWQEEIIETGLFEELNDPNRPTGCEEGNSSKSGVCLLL
Chain of Mitogen-activated protein kinase 9 (Homo sapiens) (P45984 whole entry, looked up, canonical isoform): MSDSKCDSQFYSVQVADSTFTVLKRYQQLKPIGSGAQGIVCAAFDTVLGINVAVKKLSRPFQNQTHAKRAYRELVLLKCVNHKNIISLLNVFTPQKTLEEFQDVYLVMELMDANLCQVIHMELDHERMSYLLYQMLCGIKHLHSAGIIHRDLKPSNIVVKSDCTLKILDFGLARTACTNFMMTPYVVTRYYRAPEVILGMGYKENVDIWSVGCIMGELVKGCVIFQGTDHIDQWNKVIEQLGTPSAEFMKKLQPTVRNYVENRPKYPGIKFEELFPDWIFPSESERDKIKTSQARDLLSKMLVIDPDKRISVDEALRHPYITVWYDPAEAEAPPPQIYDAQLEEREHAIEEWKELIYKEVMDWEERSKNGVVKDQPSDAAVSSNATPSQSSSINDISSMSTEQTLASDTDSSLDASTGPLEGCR
Chain of Phosphatidylinositol 4,5-bisphosphate 3-kinase catalytic subunit delta isoform (Homo sapiens) (O00329 whole entry, canonical isoform): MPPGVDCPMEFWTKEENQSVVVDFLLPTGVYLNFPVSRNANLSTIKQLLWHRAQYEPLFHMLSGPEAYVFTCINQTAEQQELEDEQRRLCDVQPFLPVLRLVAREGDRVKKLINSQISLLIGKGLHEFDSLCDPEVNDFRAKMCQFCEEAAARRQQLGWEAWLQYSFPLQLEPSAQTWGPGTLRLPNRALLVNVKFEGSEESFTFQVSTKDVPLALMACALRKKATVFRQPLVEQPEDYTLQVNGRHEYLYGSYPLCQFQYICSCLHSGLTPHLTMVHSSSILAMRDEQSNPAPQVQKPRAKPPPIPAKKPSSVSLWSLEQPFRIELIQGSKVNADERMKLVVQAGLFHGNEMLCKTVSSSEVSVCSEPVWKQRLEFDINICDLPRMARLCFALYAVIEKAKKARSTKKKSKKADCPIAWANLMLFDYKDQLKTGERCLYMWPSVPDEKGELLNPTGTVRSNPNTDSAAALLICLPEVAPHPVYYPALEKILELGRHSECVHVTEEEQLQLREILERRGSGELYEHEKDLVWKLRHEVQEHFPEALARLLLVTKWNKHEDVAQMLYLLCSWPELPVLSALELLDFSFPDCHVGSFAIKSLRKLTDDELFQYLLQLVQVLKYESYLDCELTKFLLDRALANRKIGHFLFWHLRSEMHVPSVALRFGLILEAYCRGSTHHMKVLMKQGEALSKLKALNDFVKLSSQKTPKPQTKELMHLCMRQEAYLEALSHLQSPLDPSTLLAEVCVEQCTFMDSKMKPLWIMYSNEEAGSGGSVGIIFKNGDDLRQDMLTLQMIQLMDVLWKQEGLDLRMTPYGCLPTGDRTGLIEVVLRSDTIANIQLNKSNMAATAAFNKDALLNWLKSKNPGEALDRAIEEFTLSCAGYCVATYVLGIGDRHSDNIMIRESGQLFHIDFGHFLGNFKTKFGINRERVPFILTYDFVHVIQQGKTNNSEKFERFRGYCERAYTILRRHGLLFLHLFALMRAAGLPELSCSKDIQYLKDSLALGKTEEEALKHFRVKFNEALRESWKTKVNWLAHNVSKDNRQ
Chain of Serine/threonine-protein kinase Sgk1 (Homo sapiens) (O00141 whole entry): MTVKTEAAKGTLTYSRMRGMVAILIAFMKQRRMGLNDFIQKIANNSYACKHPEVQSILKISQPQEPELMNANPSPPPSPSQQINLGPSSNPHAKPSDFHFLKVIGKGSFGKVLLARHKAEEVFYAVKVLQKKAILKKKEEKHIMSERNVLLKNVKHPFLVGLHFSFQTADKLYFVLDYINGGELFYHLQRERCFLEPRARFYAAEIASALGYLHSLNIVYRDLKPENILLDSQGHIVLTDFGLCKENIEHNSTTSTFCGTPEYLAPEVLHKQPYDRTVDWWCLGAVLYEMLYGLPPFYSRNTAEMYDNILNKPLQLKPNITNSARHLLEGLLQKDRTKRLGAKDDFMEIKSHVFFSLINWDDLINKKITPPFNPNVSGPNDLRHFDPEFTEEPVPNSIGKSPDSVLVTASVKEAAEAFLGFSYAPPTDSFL
Chain of Cyclin-dependent kinase 11A (Homo sapiens) (Q9UQ88 whole entry, the tested form may be a part): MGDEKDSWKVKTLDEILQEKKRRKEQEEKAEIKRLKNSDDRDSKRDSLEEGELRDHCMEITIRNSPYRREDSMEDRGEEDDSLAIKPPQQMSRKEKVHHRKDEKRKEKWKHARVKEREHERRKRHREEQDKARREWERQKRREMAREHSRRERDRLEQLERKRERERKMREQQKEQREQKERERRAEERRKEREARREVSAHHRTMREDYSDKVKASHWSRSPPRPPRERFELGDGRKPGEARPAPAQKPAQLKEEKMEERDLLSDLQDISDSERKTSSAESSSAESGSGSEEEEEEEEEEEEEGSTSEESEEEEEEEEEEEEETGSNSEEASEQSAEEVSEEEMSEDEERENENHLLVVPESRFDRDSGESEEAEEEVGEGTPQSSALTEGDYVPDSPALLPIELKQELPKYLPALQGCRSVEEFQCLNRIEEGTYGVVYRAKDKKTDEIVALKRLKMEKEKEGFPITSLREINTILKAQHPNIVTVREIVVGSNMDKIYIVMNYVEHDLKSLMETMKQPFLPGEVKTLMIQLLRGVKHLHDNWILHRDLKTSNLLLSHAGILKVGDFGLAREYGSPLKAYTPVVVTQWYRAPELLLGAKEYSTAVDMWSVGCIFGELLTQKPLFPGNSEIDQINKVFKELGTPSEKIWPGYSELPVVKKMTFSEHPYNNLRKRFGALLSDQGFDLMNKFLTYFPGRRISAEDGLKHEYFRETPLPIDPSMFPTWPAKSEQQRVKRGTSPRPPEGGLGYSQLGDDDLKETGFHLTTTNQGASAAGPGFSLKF
Chain of Serine/threonine-protein kinase RIO3 (Homo sapiens) (O14730 whole entry): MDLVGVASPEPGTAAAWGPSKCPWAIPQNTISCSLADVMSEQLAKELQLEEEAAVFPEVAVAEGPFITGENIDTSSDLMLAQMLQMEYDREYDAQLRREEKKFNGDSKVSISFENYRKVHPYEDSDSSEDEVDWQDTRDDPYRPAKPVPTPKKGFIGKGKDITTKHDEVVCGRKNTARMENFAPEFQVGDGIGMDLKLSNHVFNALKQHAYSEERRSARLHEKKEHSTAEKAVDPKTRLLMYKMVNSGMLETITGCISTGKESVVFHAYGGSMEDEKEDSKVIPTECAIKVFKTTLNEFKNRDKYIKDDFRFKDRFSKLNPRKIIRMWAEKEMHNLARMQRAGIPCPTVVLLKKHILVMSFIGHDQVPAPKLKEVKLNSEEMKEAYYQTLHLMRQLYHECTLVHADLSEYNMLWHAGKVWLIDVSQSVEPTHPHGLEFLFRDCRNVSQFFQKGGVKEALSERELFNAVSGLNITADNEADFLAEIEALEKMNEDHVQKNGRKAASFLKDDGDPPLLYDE
Chain of 5-hydroxytryptamine receptor 1D (Homo sapiens) (P28221 whole entry): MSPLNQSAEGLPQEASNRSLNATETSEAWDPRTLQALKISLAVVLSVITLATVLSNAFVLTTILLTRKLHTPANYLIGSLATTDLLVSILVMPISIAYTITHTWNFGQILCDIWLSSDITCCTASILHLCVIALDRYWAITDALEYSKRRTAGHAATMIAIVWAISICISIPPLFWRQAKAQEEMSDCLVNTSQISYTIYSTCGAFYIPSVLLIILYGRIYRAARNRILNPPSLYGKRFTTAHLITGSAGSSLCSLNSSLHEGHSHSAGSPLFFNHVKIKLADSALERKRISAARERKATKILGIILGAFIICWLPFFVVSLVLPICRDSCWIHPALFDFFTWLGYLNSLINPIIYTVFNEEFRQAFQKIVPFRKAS

CC(=O)C1=C(C)N(c2cccc(C(F)(F)F)c2)C(=O)N[C@@H]1c1ccc(C#N)nc1 [BAY-678]
inactive: residual activity [1] 90.8% | residual activity [2] 100% | residual activity [3] 74.5% | residual activity [4] 100% | residual activity [5] 72.8% | residual activity [6] 100% | residual activity [7] 100% | residual activity [8] 100% | residual activity [9] 85.7% | residual activity [10] 100% | residual activity [11] 100% | residual activity [12] 100% | residual activity [13] 100% | residual activity [14] 100% | residual activity [15] 92.4% | residual activity [16] 99.6% | residual activity [17] 100% | inhibition [18] 10.9% | residual activity [19] 100% | residual activity [20] 100% | residual activity [21] 100% | residual activity [22] 78.5% | residual activity [23] 100% | inhibition [24] 34.1% | residual activity [25] 95.7% | residual activity [26] 78.2% | residual activity [27] 100% | residual activity [28] 92.1% | residual activity [29] 85.8% | residual activity [30] 92.9% | residual activity [31] 90.4% | residual activity [32] 83.3% | residual activity [33] 83.4% | residual activity [34] 94.6% | residual activity [35] 100% | residual activity [36] 100% | residual activity [37] 100% | residual activity [38] 100% | residual activity [39] 93.9% | residual activity [40] 89.8% | residual activity [41] 100% | residual activity [42] 95.7% | residual activity [43] 94% | residual activity [44] 100% | residual activity [45] 90.8%
